Assay results: the NIST ThermoML archive (doi:10.1021/je060441j)

Assay: xn = mol fraction of the nth substance listed
Details: 101 kPa, Liquid

ClC(Cl)Cl [trichloromethane] + CO
mass density [kg/m3]
Details	288.15 K	293.15 K	298.15 K	303.15 K	308.15 K	313.15 K
x2 = 0	1498.08	1488.64	1479.15	1469.61	1460.03	1450.41
x2 = 0.0298	1487.35	1477.93	1468.46	1458.95	1449.38	1439.8
x2 = 0.0492	1480.27	1470.88	1461.44	1451.95	1442.4	1432.84
x2 = 0.0724	1471.76	1462.41	1453.01	1443.55	1434.04	1424.49
x2 = 0.0942	1463.44	1454.14	1444.79	1435.38	1425.89	1416.4
x2 = 0.1282	1450.19	1440.98	1431.7	1422.37	1412.96	1403.52
x2 = 0.1586	1437.96	1428.83	1419.63	1410.37	1401.04	1391.68
x2 = 0.2444	1401.12	1392.24	1383.3	1374.3	1365.22	1356.1
x2 = 0.2956	1377.44	1368.73	1359.97	1351.14	1342.24	1333.29
x2 = 0.3383	1356.51	1347.95	1339.33	1330.66	1321.9	1313.09
x2 = 0.398	1325.26	1316.93	1308.55	1300.11	1291.59	1283.02
x2 = 0.4393	1302.23	1294.08	1285.87	1277.6	1269.26	1260.88
x2 = 0.4983	1267.1	1259.22	1251.28	1243.28	1235.22	1227.13
x2 = 0.5505	1233.39	1225.77	1218.09	1210.35	1202.55	1194.71
x2 = 0.6022	1197.32	1190.01	1182.62	1175.17	1167.65	1160.08
x2 = 0.6352	1172.94	1165.78	1158.57	1151.3	1143.98	1136.62
x2 = 0.6999	1121.29	1114.52	1107.71	1100.84	1093.93	1086.96
x2 = 0.75	1077.55	1071.1	1064.61	1058.07	1051.48	1044.85
x2 = 0.7996	1030.62	1024.5	1018.34	1012.15	1005.91	999.622
x2 = 0.8193	1011.24	1005.11	998.988	992.86	986.761	980.633
x2 = 0.8534	975.44	969.692	963.915	958.1	952.24	946.342
x2 = 0.91	911.539	906.188	900.813	895.41	889.975	884.513
x2 = 0.93	887.399	882.191	876.963	871.71	866.422	861.11
x2 = 0.9542	857.083	852.051	847	841.927	836.829	831.705
